Patent publication US20040077618A1, “Cycloalkylamides and their therapeutic applications” (priority 2002, published 2004)

Assays:
CD-1 mice [1] = assay: Subcutaneous pentylenetetrazole (PTZ) seizure procedure; assay type: in vivo; details: Mus musculus; PTZ 85 mg/kg subcutaneous; oral pretreatment 30 minutes prior; observed 15 minutes; linear regression; male CD-1 mice; read-out: ED50 (dose at which 50% of the mice were protected from tonic seizures)
Protocol: (§1) Adult, male, CD-1 mice (22-25 grams) were obtained from Charles River Laboratories (Portage, Mich.) and housed at Abbott Laboratories (Abbott Park) under standard lighting conditions of 12 hours on/12 hours off, with lights on at 6 a.m. Food and water were provided ad libitum and mice weighed 25-35 grams at the time of testing.
(§2) Compounds were prepared for oral administration by suspending them in a vehicle of 100 uL Tween® 80 per mL hydroxypropyl methylcellulose (2 mg/mL, Abbott Laboratories). Compound solutions were administered at a volume of 10 mL/kg, p.o.
The method used was similar to that of E. A. Swinyard, General principles: Experimental selection, quantification and evaluation of anti-convulsants, Anti-epileptic Drugs, Third Edition, R. Levey, et al., Editors. 1989, Raven Press Ltd: New York. During the experiment the mice were housed individually in clear polycarbonate cages for observation. […] Seizures were induced by the subcutaneous injection of pentylenetetrazole (PTZ, 85 mg/kg) just below the nape of the neck. […] A total of 20 mice were used in each group. The ED50 for the compounds were calculated using linear regression and represent the dose at which 50% of the mice were protected from tonic seizures.

CD-1 mice [2] = assay: Maximal electroshock procedure (protection from tonic seizures); assay type: in vivo; details: Mus musculus, corneal electrodes 50 mA 0.4 second, oral pretreatment 30 minutes prior, PROBIT analysis, male CD-1 mice, read-out: ED50 (dose at which 50% of the mice were protected from tonic seizures)
Protocol: as §1, §2
The method used was similar to that of E. A. Swinyard, General principles: Experimental selection, quantification and evaluation of anti-convulsants, Anti-epileptic Drugs, Third Edition, R. Levey, et al., Editors. 1989, Raven Press Ltd: New York. Mice were pretreated orally with compounds of the present invention 30 minutes prior to electrical stimulation. Electrical stimulation consisted of pulsed electrical current (50 mA, 0.4 second duration, pulse width 0.5 msec, 60 pulses/sec) applied via corneal electrodes to induce seizure. The stimulation was delivered with an ECT Unit (Ugo Basile #7801). […] The percent protection from tonic seizures was calculated by dividing the number of protected mice by the total number in the group. […]

CCCC(CCC)C(=O)O [Valproate]
ED50 (CD-1 mice [1]): 1800 µmol/kg | ED50 (CD-1 mice [2]): 1200 µmol/kg
